Data: patent publication US20170045513A1, “METHODS OF DIAGNOSING CELIAC DISEASE USING IP-10” (ImmusanT, Inc., priority 2014, published 2017)
Non-standard residues stand in square brackets, D forms with d. pGlu = O=C1CC[C@@H](C(=O)O)N1

Columns and labels:
Assay type in all cases: cell-based, human
[1] = system: gluten-reactive T cells; assay: Overnight IFNγ ELISpot assay with fresh PBMC; conditions: for Percent of maximal response to individual gluten peptides, ELISp: after oral gluten challenge; for IFNγ ELISpot % max Mean: n = 5, blood after oral gluten challenge, individual peptides 5 μM (Peptide 2* of P14, Pepscan: 10 μg/mL (5.45 μM))
How it was run: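 Read-out is IFNγ spot-forming units per well, counted automatically after overnight culture of fresh PBMC (0.4 million/well) with single peptides (duplicate) or pools (triplicate). Donors: HLA-DQ2.5+ celiac patients on gluten-free diet, bled pre- and day 6 after 3-day oral gluten challenge.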

[2] = system: gluten-reactive T cells; assay: 96-well plate whole blood cytokine release, IFNγ by MAGPIX multiplex bead assay; conditions: for Percent of maximal response to individual gluten peptides, IFNg: after oral gluten challenge; for IFNγ WB MAGPIX % max Mean: n = 8, blood after oral gluten challenge, individual peptides 5 μM (Peptide 2* of P14, Pepscan: 10 μg/mL (5.45 μM))
[3] = system: gluten-reactive T cells; assay: Cytokine release assays taken together (IFNγ ELISpot, whole blood IFNγ and IP-10, in-tube IFNγ ELISA); conditions: blood collected after oral gluten challenge
How it was run: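 Whole blood with peptides (P3 0.05-50 μg/mL; P13/P14 0.025-25 μM; […]), 24 h, 37 °C; plasma IFNγ/IP-10 by multiplex beads. Tube assay: 1 mL blood with P3 or CEF, 24 h, plasma IFNγ ELISA; elevated if >7.2 pg/mL above medium tube and SI >1.25. ELISpot overnight on fresh PBMC.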

Row | Substance | Percent of maximal response to individual gluten peptides, ELISp ([1]; Subject 3, Max. 18 SFU) | Percent of maximal response to individual gluten peptides, ELISp ([1]; Subject 4, Max. 36 SFU) | Percent of maximal response to individual gluten peptides, ELISp ([1]; Subject 6, Max. 16 SFU) | Percent of maximal response to individual gluten peptides, ELISp ([1]; Subject 8, Max. 17 SFU) | Percent of maximal response to individual gluten peptides, ELISp ([1]; Subject 10, Max. 11 SFU) | IFNγ ELISpot % max Mean [1] [% max] | Percent of maximal response to individual gluten peptides, IFNg ([2]; Subject 2, Max. 116 pg/mL) | Percent of maximal response to individual gluten peptides, IFNg ([2]; Subject 3, Max. 799 pg/mL) | Percent of maximal response to individual gluten peptides, IFNg ([2]; Subject 4, Max. 136 pg/mL) | Percent of maximal response to individual gluten peptides, IFNg ([2]; Subject 6, Max. 72 pg/mL) | Percent of maximal response to individual gluten peptides, IFNg ([2]; Subject 7, Max. 17 pg/mL) | Percent of maximal response to individual gluten peptides, IFNg ([2]; Subject 8, Max. 47 pg/mL) | Percent of maximal response to individual gluten peptides, IFNg ([2]; Subject 9, Max. 67 pg/mL) | Percent of maximal response to individual gluten peptides, IFNg ([2]; Subject 10, Max. 229 pg/mL) | IFNγ WB MAGPIX % max Mean [2] [% max] | activity relative to Peptide 14 in the cytokine release assays [3] | rank of activity among individual gluten peptides [3]
1 | (pE)QPFPQPEQPIPVQPEQS-amide ([pGlu]QPFPQPEQPIPVQPEQS-NH2; SMILES CC[C@H](C)[C@H](NC(=O)[C@@H]1CCCN1C(=O)[C@H](CCC(N)=O)NC(=O)[C@H](CCC(=O)O)NC(=O)[C@@H]1CCCN1C(=O)[C@H](CCC(N)=O)NC(=O)[C@@H]1CCCN1C(=O)[C@H](Cc1ccccc1)NC(=O)[C@@H]1CCCN1C(=O)[C@H](CCC(N)=O)NC(=O)[C@@H]1CCC(=O)N1)C(=O)N1CCC[C@H]1C(=O)N[C@H](C(=O)N[C@@H](CCC(N)=O)C(=O)N1CCC[C@H]1C(=O)N[C@@H](CCC(=O)O)C(=O)N[C@@H](CCC(N)=O)C(=O)N[C@@H](CO)C(N)=O)C(C)C) [Peptide 4] | 17 % of max | 44 % of max | 19 % of max | 12 % of max | 27 % of max | 24 | 33 % of max | 13 % of max | 24 % of max | 1 % of max | 1 % of max | 9 % of max | 29 % of max | 11 % of max | 15 | from one-half to one-eighth as active as Peptide 14 | 
2 | (pE)PEQPFPEQPIPEQPQPYP-amide ([pGlu]PEQPFPEQPIPEQPQPYP-NH2; SMILES CC[C@H](C)[C@H](NC(=O)[C@@H]1CCCN1C(=O)[C@H](CCC(N)=O)NC(=O)[C@H](CCC(=O)O)NC(=O)[C@@H]1CCCN1C(=O)[C@H](Cc1ccccc1)NC(=O)[C@@H]1CCCN1C(=O)[C@H](CCC(N)=O)NC(=O)[C@H](CCC(=O)O)NC(=O)[C@@H]1CCCN1C(=O)[C@@H]1CCC(=O)N1)C(=O)N1CCC[C@H]1C(=O)N[C@@H](CCC(=O)O)C(=O)N[C@@H](CCC(N)=O)C(=O)N1CCC[C@H]1C(=O)N[C@@H](CCC(N)=O)C(=O)N1CCC[C@H]1C(=O)N[C@@H](Cc1ccc(O)cc1)C(=O)N1CCC[C@H]1C(N)=O) [Peptide 14] | 100 % of max | 100 % of max | 100 % of max | 100 % of max | 100 % of max | 100 | 53 % of max | 100 % of max | 100 % of max | 100 % of max | 99 % of max | 100 % of max | 98 % of max | 100 % of max | 94 |  | most active
